Experimental data reported in the NIST ThermoML archive (doi:10.1016/j.tca.2011.06.020).

Experiments:
[1] = xn = mol fraction of the nth substance listed; details: 101 kPa, Liquid; for speed of sound: Sing-around technique in a fixed-path interferometer; for mass density: Vibrating tube method
[2] = excess molar enthalpy (molar enthalpy of mixing); xn = mol fraction of the nth substance listed; details: 308.15 K, 101 kPa, Liquid, Drop calorimetry

CNC=O [N-methylformamide] + C1CCOCC1
[1]
Details	mass density, 298.15 K [kg/m3]	mass density, 303.15 K [kg/m3]	mass density, 308.15 K [kg/m3]	speed of sound, 298.15 K [m/s]	speed of sound, 303.15 K [m/s]	speed of sound, 308.15 K [m/s]
x2 = 0	999.004	994.653	990.302	1432.9	1417.7	1402.5
x2 = 0.0822	984.359	979.949	975.601	1411.8	1396.4	1380.7
x2 = 0.1587	971.886	967.407	963.009	1394	1377.9	1361.7
x2 = 0.2344	960.487	955.945	951.454	1377.9	1361	1344.4
x2 = 0.2633	956.359	951.788	947.263	1372.1	1355	1338.1
x2 = 0.3005	951.208	946.607	942.041	1365	1347.4	1330.3
x2 = 0.3572	943.711	939.057	934.409	1354.5	1336.5	1319.1
x2 = 0.3814	940.623	935.944	931.277	1350.3	1332	1314.5
x2 = 0.4163	936.288	931.584	926.867	1344.4	1325.8	1308
x2 = 0.4334	934.212	929.494	924.763	1341.6	1322.9	1305
x2 = 0.4851	928.124	923.354	918.566	1333.4	1314.3	1296.1
x2 = 0.5122	925.036	920.247	915.428	1329.3	1310	1291.6
x2 = 0.5693	918.752	913.91	909.049	1321	1301.3	1282.6
x2 = 0.6064	914.817	909.949	905.053	1315.9	1296	1277
x2 = 0.6571	909.625	904.722	899.79	1309.1	1289	1269.6
x2 = 0.6988	905.507	900.569	895.605	1303.8	1283.5	1263.7
x2 = 0.7315	902.361	897.401	892.421	1299.8	1279.3	1259.3
x2 = 0.7743	898.361	893.366	888.365	1294.7	1273.9	1253.5
x2 = 0.8468	891.856	886.811	881.763	1286.4	1265.1	1244.1

[2]
Details	excess molar enthalpy [kcal/mol]
x2 = 0.0662	0.00815
x2 = 0.1805	0.0293
x2 = 0.2254	0.0372
x2 = 0.2892	0.0493
x2 = 0.3252	0.0564
x2 = 0.3743	0.064
x2 = 0.4016	0.0666
x2 = 0.4724	0.0749
x2 = 0.5114	0.0772
x2 = 0.5562	0.0781
x2 = 0.5923	0.0776
x2 = 0.6242	0.0747
x2 = 0.6675	0.0727
x2 = 0.7153	0.0658
x2 = 0.7576	0.0603
x2 = 0.7901	0.0533
x2 = 0.8152	0.0482
x2 = 0.8676	0.0367

Cc1ccccc1N [2-methylaniline] + C1CCOCC1
[1]
Details	mass density, 298.15 K [kg/m3]	mass density, 303.15 K [kg/m3]	mass density, 308.15 K [kg/m3]	speed of sound, 298.15 K [m/s]	speed of sound, 303.15 K [m/s]	speed of sound, 308.15 K [m/s]
x1 = 0.0732	890.691	885.73	880.749	1296.4	1274.1	1252.5
x1 = 0.1342	899.769	894.897	890.021	1318.6	1296.8	1275.8
x1 = 0.1768	905.846	900.991	896.174	1334	1312.5	1292
x1 = 0.2207	911.867	907.057	902.258	1349.8	1328.6	1308.5
x1 = 0.2721	918.66	913.86	909.112	1368.2	1347.1	1327.6
x1 = 0.3328	926.351	921.578	916.872	1389.3	1368.7	1349.5
x1 = 0.3562	929.219	924.445	919.758	1397.3	1376.9	1357.8
x1 = 0.3901	933.275	928.536	923.89	1409	1388.5	1369.8
x1 = 0.4288	937.818	933.094	928.469	1421.8	1401.6	1383.1
x1 = 0.4567	940.995	936.325	931.715	1431	1411.1	1392.3
x1 = 0.5014	945.986	941.37	936.823	1445.5	1425.7	1407.2
x1 = 0.5362	949.788	945.194	940.693	1456.6	1437	1418.2
x1 = 0.5982	956.336	951.867	947.455	1475.7	1456.5	1437.6
x1 = 0.6243	959.04	954.607	950.235	1483.6	1464.7	1445.7
x1 = 0.6644	963.103	958.737	954.427	1495.7	1477	1457.6
x1 = 0.7125	967.87	963.596	959.361	1510.2	1491.3	1471.8
x1 = 0.7703	973.454	969.292	965.131	1527.4	1508.7	1488.6
x1 = 0.8025	976.501	972.384	968.276	1537	1518.1	1497.9
x1 = 1	994.351	990.224	986.069	1602.6	1577.8	1558.4

Cc1ccccc1N [2-methylaniline] + CNC=O
[1]
Details	mass density, 298.15 K [kg/m3]	mass density, 303.15 K [kg/m3]	mass density, 308.15 K [kg/m3]	speed of sound, 298.15 K [m/s]	speed of sound, 303.15 K [m/s]	speed of sound, 308.15 K [m/s]
x1 = 0.0656	1000.18	995.882	991.55	1454.3	1438.4	1423.3
x1 = 0.1258	1000.98	996.704	992.418	1472.4	1456.3	1440.9
x1 = 0.1673	1001.39	997.124	992.87	1484.1	1467.8	1452.2
x1 = 0.2127	1001.71	997.464	993.254	1496	1479.7	1463.8
x1 = 0.2466	1001.88	997.65	993.459	1504.4	1488.2	1471.9
x1 = 0.2789	1001.99	997.753	993.588	1512.1	1495.7	1479.4
x1 = 0.3081	1002.03	997.811	993.675	1518.6	1502.3	1485.7
x1 = 0.3356	1002.04	997.839	993.709	1524.4	1508.2	1491.4
x1 = 0.3898	1001.96	997.768	993.664	1535.2	1518.9	1501.9
x1 = 0.4383	1001.79	997.624	993.525	1544	1527.6	1510.4
x1 = 0.4802	1001.56	997.416	993.334	1551.1	1534.6	1517.2
x1 = 0.5269	1001.25	997.104	993.02	1558.2	1541.5	1524.1
x1 = 0.5599	1000.97	996.843	992.76	1562.9	1545.9	1528.5
x1 = 0.6006	1000.59	996.484	992.392	1568.2	1551.1	1533.6
x1 = 0.6519	1000.02	995.935	991.837	1574.4	1556.7	1539.2
x1 = 0.7244	999.105	995.043	990.907	1582.2	1563.4	1546
x1 = 0.7904	998.148	994.083	989.937	1588.2	1568.3	1550.9
x1 = 0.8485	997.204	993.14	988.977	1592.8	1571.9	1554.2
x1 = 1	994.351	990.224	986.069	1602.6	1577.8	1558.4

[2]
Details	excess molar enthalpy [kcal/mol]
x1 = 0.0486	-0.0402
x1 = 0.0972	-0.0749
x1 = 0.1358	-0.101
x1 = 0.1888	-0.126
x1 = 0.2267	-0.145
x1 = 0.2786	-0.16
x1 = 0.3432	-0.175
x1 = 0.3972	-0.182
x1 = 0.4209	-0.183
x1 = 0.4811	-0.181
x1 = 0.5306	-0.175
x1 = 0.5822	-0.162
x1 = 0.6225	-0.153
x1 = 0.6788	-0.138
x1 = 0.7121	-0.124
x1 = 0.7826	-0.0967
x1 = 0.8127	-0.0858
x1 = 0.8455	-0.0712
